Data published in patent US10294212B2 (CURADEV PHARMA PRIVATE LTD., priority 2013, dated 2019).

molecular target: IDO1 in HeLa cells (Homo sapiens (Human), UniProt P14902); experiment: HeLa cell based IDO1 assay (IFNγ-induced, KYN in supernatant); settings: not given
Protocol: HeLa cells were obtained from ATCC and maintained in DMEM supplemented with sodium bicarbonate (2.1 g/L), HEPES (4.1 g/L), L-glutamine (2 mM), non-essential amino acid (84 mg/L) and fetal bovine serum (10% FBS) and maintained at 95% humidity and 5% CO2 in a 37° C. incubator. Unless otherwise stated, all materials were procured from Sigma. Upon incubation with gamma-interferon (IFNγ ), HeLa cells express IDO1, which catalyzes the formation of N-formyl kynurenine from tryptophan present in growth medium. The assay was performed as follows:
Cells were plated in medium (300 μL) at a density of 0.1 million per well of a 48 well plate and hIDO1 was induced by overnight treatment with IFNγ (50 ng/mL) (Peprotech, USA). The following day, cells were washed to remove IFNγ and were incubated with specific concentrations of test compounds (typically 10 μM to 1 nM, final volume 300 μL) in Hanks Balanced Salt Solution (HBSS) containing 80 μM L-tryptophan. Following incubation, supernatant (150 μL) was transferred to a 96 well plate into which 30%TCA (304) was added and the contents further incubated at 65° C. for 15 min to fully convert N-formylkynurenine to kynurenine. The reaction mixture was then centrifuged to remove sediments and the KYN in the supernatant was estimated by UV-visible absorption spectroscopy at 360 nm using a Waters HPLC system fitted with a C-18 column. (Xiangdong Liu et al. Blood 2010, Vol-117, 3520-30; Sono described above).
Percent inhibition at each concentration of test compounds was determined by estimating the decrease in KYN with reference to the reaction control with 1% DMSO vehicle. Data were analyzed using nonlinear regression to generate IC50 values using Graph Pad Prism® 5.

IDO1 in HeLa cells, sequence (P14902 whole entry): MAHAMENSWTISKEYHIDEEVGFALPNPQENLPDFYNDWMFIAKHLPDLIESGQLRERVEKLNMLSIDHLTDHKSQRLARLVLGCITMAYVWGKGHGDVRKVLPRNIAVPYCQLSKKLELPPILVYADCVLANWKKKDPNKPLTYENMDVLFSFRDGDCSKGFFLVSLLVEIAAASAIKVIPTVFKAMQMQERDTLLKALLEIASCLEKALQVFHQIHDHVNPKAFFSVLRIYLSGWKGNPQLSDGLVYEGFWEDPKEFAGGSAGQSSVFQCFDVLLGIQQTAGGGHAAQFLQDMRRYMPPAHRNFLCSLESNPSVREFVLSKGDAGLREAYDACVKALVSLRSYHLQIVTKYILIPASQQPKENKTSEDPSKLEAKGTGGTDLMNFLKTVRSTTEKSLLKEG

Row | Structure (SMILES) | IC50 [nM]
1 | N#Cc1cccc(Nc2c(N)oc3cnccc23)c1 [Compound 99, 3-((2-Aminofuro[2,3-c]pyridin-3-yl)amino)benzonitrile] | < 200
2 | Nc1oc2c(-c3cccc(Cl)c3)nccc2c1Nc1ccc(F)c(Cl)c1 [Compound 100, N^3-(3-Chloro-4-fluorophenyl)-7-(3-chlorophenyl)furo[2,3-c]pyridine-2,3-diamine] | < 200
3 | CCCCOc1cc2c(Nc3ccc(F)c(Cl)c3)c(N)oc2c(-c2ccccc2)n1 [Compound 102, 5-Butoxy-N^3-(3-chloro-4-fluorophenyl)-7-phenylfuro[2,3-c]pyridine-2,3-diamine] | > 1000
4 | N#Cc1nccc2c(Nc3ccc(F)c(Cl)c3)c(N)oc12 [Compound 103, 2-Amino-3-((3-chloro-4-fluorophenyl)amino)furo[2,3-c]pyridine-7-carbonitrile] | < 200
5 | CCOc1cc2c(Nc3ccc(F)c(Cl)c3)c(N)oc2c(-c2ccccc2)n1 [Compound 105, N^3-(3-Chloro-4-fluorophenyl)-5-ethoxy-7-phenylfuro[2,3-c]pyridine-2,3-diamine] | > 1000
6 | Nc1oc2c(C3CCCCC3)nccc2c1Nc1ccc(F)c(Cl)c1 [Compound 108, N^3-(3-Chloro-4-fluorophenyl)-7-cyclohexylfuro[2,3-c]pyridine-2,3-diamine] | < 200
7 | CCc1cc2c(Nc3ccc(F)c(Cl)c3)c(N)oc2c(-c2ccccc2)n1 [Compound 109, N^3-(3-chloro-4-fluorophenyl)-5-ethyl-7-phenylfuro[2,3-c]pyridine-2,3-diamine] | 200 to 1000
8 | C#Cc1cc(Nc2c(N)oc3c(-c4ccccc4)nccc23)ccc1F [Compound 110, N^3-(3-Ethynyl-4-fluorophenyl)-7-phenylfuro[2,3-c]pyridine-2,3-diamine] | < 200
9 | C#Cc1cc(Nc2c(N)oc3c(-c4ccncc4)nccc23)ccc1F [Compound 111, N^3-(3-Ethynyl-4-fluorophenyl)-7-(pyridin-4-yl)furo[2,3-c]pyridine-2,3-diamine] | < 200
10 | N#Cc1ccc2c(Nc3cccc(C(F)(F)F)c3)c(N)oc2c1 [Compound 113, 2-Amino-3-((3-(trifluoromethyl)phenyl)amino)benzofuran-6-carbonitrile] | < 200
11 | Cc1cccc(Nc2c(N)oc3cc(C#N)ccc23)c1 [Compound 114, 2-Amino-3-(m-tolylamino)benzofuran-6-carbonitrile] | < 200
12 | N#Cc1ccc2c(Nc3cccc(Br)c3)c(N)oc2c1 [Compound 115, 2-Amino-3-((3-bromophenyl)amino)benzofuran-6-carbonitrile] | < 200
13 | N#Cc1ccc2c(Nc3ccccc3Cl)c(N)oc2c1 [Compound 116, 2-Amino-3-((2-chlorophenyl)amino)benzofuran-6-carbonitrile] | 200 to 1000
14 | Nc1sc2ccccc2c1Nc1ccc(F)c(Cl)c1 [Compound 117, N^3-(3-Chloro-4-fluorophenyl)benzo[b]thiophene-2,3-diamine] | < 200
15 | Nc1sc2ccccc2c1Nc1cccc(C(F)(F)F)c1 [Compound 119, N^3-(3-(Trifluoromethyl)phenyl)benzo[b]thiophene-2,3-diamine] | < 200
16 | Nc1sc2ccccc2c1Nc1cccc(F)c1 [Compound 120, N^3-(3-Fluorophenyl)benzo[b]thiophene-2,3-diamine] | < 200

molecular target: Human TDO (hTDO)-transfected CHO-K1 cells (Homo sapiens (Human), UniProt P48775); experiment: CHO-K1 cell based TDO assay; settings: hTDO cellular assay
Sequence (P48775 whole entry): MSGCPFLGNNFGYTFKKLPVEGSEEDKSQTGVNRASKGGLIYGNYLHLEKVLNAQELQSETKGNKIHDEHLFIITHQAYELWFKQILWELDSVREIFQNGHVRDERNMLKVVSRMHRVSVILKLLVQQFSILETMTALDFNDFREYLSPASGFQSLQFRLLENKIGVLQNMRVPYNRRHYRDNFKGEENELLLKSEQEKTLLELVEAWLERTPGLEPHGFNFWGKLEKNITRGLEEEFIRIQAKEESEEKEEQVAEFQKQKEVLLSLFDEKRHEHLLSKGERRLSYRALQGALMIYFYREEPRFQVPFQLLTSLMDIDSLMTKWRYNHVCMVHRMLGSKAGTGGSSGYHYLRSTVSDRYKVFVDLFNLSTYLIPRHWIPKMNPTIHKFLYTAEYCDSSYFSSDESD
In short: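 Kynurenine output was read by LC/MS/MS after TCA precipitation and 15 min at 65° C. Before that, CHO-K1 cells stably carrying human TDO2 were incubated 2 h with compounds (typically 31 μM to 10 nM) and 80 μM L-tryptophan in HBSS. Decrease versus DMSO vehicle gave percent inhibition, then IC50.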

Row | Structure (SMILES) | IC50 [nM]
17 | N#Cc1cccc(Nc2c(N)oc3cnccc23)c1 [Compound 99, 3-((2-Aminofuro[2,3-c]pyridin-3-yl)amino)benzonitrile] | > 2000
18 | Nc1oc2c(-c3cccc(Cl)c3)nccc2c1Nc1ccc(F)c(Cl)c1 [Compound 100, N^3-(3-Chloro-4-fluorophenyl)-7-(3-chlorophenyl)furo[2,3-c]pyridine-2,3-diamine] | > 2000
19 | CCCCOc1cc2c(Nc3ccc(F)c(Cl)c3)c(N)oc2c(-c2ccccc2)n1 [Compound 102, 5-Butoxy-N^3-(3-chloro-4-fluorophenyl)-7-phenylfuro[2,3-c]pyridine-2,3-diamine] | > 2000
20 | N#Cc1nccc2c(Nc3ccc(F)c(Cl)c3)c(N)oc12 [Compound 103, 2-Amino-3-((3-chloro-4-fluorophenyl)amino)furo[2,3-c]pyridine-7-carbonitrile] | < 500
21 | CCOc1cc2c(Nc3ccc(F)c(Cl)c3)c(N)oc2c(-c2ccccc2)n1 [Compound 105, N^3-(3-Chloro-4-fluorophenyl)-5-ethoxy-7-phenylfuro[2,3-c]pyridine-2,3-diamine] | > 2000
22 | Nc1oc2c(C3CCCCC3)nccc2c1Nc1ccc(F)c(Cl)c1 [Compound 108, N^3-(3-Chloro-4-fluorophenyl)-7-cyclohexylfuro[2,3-c]pyridine-2,3-diamine] | 500 to 2000
23 | CCc1cc2c(Nc3ccc(F)c(Cl)c3)c(N)oc2c(-c2ccccc2)n1 [Compound 109, N^3-(3-chloro-4-fluorophenyl)-5-ethyl-7-phenylfuro[2,3-c]pyridine-2,3-diamine] | > 2000
24 | C#Cc1cc(Nc2c(N)oc3c(-c4ccccc4)nccc23)ccc1F [Compound 110, N^3-(3-Ethynyl-4-fluorophenyl)-7-phenylfuro[2,3-c]pyridine-2,3-diamine] | 500 to 2000
25 | C#Cc1cc(Nc2c(N)oc3c(-c4ccncc4)nccc23)ccc1F [Compound 111, N^3-(3-Ethynyl-4-fluorophenyl)-7-(pyridin-4-yl)furo[2,3-c]pyridine-2,3-diamine] | 500 to 2000
26 | N#Cc1ccc2c(Nc3cccc(C(F)(F)F)c3)c(N)oc2c1 [Compound 113, 2-Amino-3-((3-(trifluoromethyl)phenyl)amino)benzofuran-6-carbonitrile] | 500 to 2000
27 | Cc1cccc(Nc2c(N)oc3cc(C#N)ccc23)c1 [Compound 114, 2-Amino-3-(m-tolylamino)benzofuran-6-carbonitrile] | > 2000
28 | N#Cc1ccc2c(Nc3cccc(Br)c3)c(N)oc2c1 [Compound 115, 2-Amino-3-((3-bromophenyl)amino)benzofuran-6-carbonitrile] | < 500
29 | N#Cc1ccc2c(Nc3ccccc3Cl)c(N)oc2c1 [Compound 116, 2-Amino-3-((2-chlorophenyl)amino)benzofuran-6-carbonitrile] | > 2000
30 | Nc1sc2ccccc2c1Nc1ccc(F)c(Cl)c1 [Compound 117, N^3-(3-Chloro-4-fluorophenyl)benzo[b]thiophene-2,3-diamine] | < 500
31 | Nc1sc2ccccc2c1Nc1cccc(C(F)(F)F)c1 [Compound 119, N^3-(3-(Trifluoromethyl)phenyl)benzo[b]thiophene-2,3-diamine] | > 2000
32 | Nc1sc2ccccc2c1Nc1cccc(F)c1 [Compound 120, N^3-(3-Fluorophenyl)benzo[b]thiophene-2,3-diamine] | < 500

molecular target: Human indoleamine 2,3-dioxygenase1 (hIDO1) (Homo sapiens (Human), UniProt P14902); experiment: In-vitro IDO1 enzyme assay (conversion of L-tryptophan to KYN); assay type: biochemical; settings: read-out: IC50 (IDO1) Enz
Sequence (P14902 whole entry): as the sequence (P14902 whole entry) above
In short: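 Kynurenine formation quantified by HPLC absorbance at 360 nm or LC/MS/MS after TCA quench and 15 min at 65 °C. Reaction: 10 nM N-His hIDO1, 30 μM tryptophan, ascorbate/methylene blue/catalase, pH 6.5 phosphate buffer, 37 °C for 30 min. Inhibition relative to 1% DMSO vehicle, fitted to IC50.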

Row | Structure (SMILES) | IC50 [nM]
33 | N#Cc1cccc(Nc2c(N)oc3cnccc23)c1 [Compound 99, 3-((2-Aminofuro[2,3-c]pyridin-3-yl)amino)benzonitrile] | > 1000
34 | Nc1oc2c(-c3cccc(Cl)c3)nccc2c1Nc1ccc(F)c(Cl)c1 [Compound 100, N^3-(3-Chloro-4-fluorophenyl)-7-(3-chlorophenyl)furo[2,3-c]pyridine-2,3-diamine] | < 200
35 | CCCCOc1cc2c(Nc3ccc(F)c(Cl)c3)c(N)oc2c(-c2ccccc2)n1 [Compound 102, 5-Butoxy-N^3-(3-chloro-4-fluorophenyl)-7-phenylfuro[2,3-c]pyridine-2,3-diamine] | > 1000
36 | N#Cc1nccc2c(Nc3ccc(F)c(Cl)c3)c(N)oc12 [Compound 103, 2-Amino-3-((3-chloro-4-fluorophenyl)amino)furo[2,3-c]pyridine-7-carbonitrile] | < 200
37 | CCOc1cc2c(Nc3ccc(F)c(Cl)c3)c(N)oc2c(-c2ccccc2)n1 [Compound 105, N^3-(3-Chloro-4-fluorophenyl)-5-ethoxy-7-phenylfuro[2,3-c]pyridine-2,3-diamine] | 200 to 1000
38 | Nc1oc2c(C3CCCCC3)nccc2c1Nc1ccc(F)c(Cl)c1 [Compound 108, N^3-(3-Chloro-4-fluorophenyl)-7-cyclohexylfuro[2,3-c]pyridine-2,3-diamine] | < 200
39 | CCc1cc2c(Nc3ccc(F)c(Cl)c3)c(N)oc2c(-c2ccccc2)n1 [Compound 109, N^3-(3-chloro-4-fluorophenyl)-5-ethyl-7-phenylfuro[2,3-c]pyridine-2,3-diamine] | 200 to 1000
40 | C#Cc1cc(Nc2c(N)oc3c(-c4ccccc4)nccc23)ccc1F [Compound 110, N^3-(3-Ethynyl-4-fluorophenyl)-7-phenylfuro[2,3-c]pyridine-2,3-diamine] | < 200
41 | C#Cc1cc(Nc2c(N)oc3c(-c4ccncc4)nccc23)ccc1F [Compound 111, N^3-(3-Ethynyl-4-fluorophenyl)-7-(pyridin-4-yl)furo[2,3-c]pyridine-2,3-diamine] | < 200
42 | N#Cc1ccc2c(Nc3cccc(C(F)(F)F)c3)c(N)oc2c1 [Compound 113, 2-Amino-3-((3-(trifluoromethyl)phenyl)amino)benzofuran-6-carbonitrile] | < 200
43 | Cc1cccc(Nc2c(N)oc3cc(C#N)ccc23)c1 [Compound 114, 2-Amino-3-(m-tolylamino)benzofuran-6-carbonitrile] | 200 to 1000
44 | N#Cc1ccc2c(Nc3cccc(Br)c3)c(N)oc2c1 [Compound 115, 2-Amino-3-((3-bromophenyl)amino)benzofuran-6-carbonitrile] | < 200
45 | N#Cc1ccc2c(Nc3ccccc3Cl)c(N)oc2c1 [Compound 116, 2-Amino-3-((2-chlorophenyl)amino)benzofuran-6-carbonitrile] | > 1000
46 | Nc1sc2ccccc2c1Nc1ccc(F)c(Cl)c1 [Compound 117, N^3-(3-Chloro-4-fluorophenyl)benzo[b]thiophene-2,3-diamine] | < 200
47 | Nc1sc2ccccc2c1Nc1cccc(C(F)(F)F)c1 [Compound 119, N^3-(3-(Trifluoromethyl)phenyl)benzo[b]thiophene-2,3-diamine] | < 200
48 | Nc1sc2ccccc2c1Nc1cccc(F)c1 [Compound 120, N^3-(3-Fluorophenyl)benzo[b]thiophene-2,3-diamine] | < 200
